Like-named read-outs stand apart in the source and are kept apart here.
Columns and labels:
[1] = target: FTO (Homo sapiens, UniProt Q9C0B1); experiment: demethylation reaction catalyzed by FTO (enzymatic inhibition, HPLC-MS/MS of N6-mA and A); assay type: biochemical
[2] = Rat liver microsome stability assay; assay type: in vitro ADME; details: liver microsomes, pH 7.4, rat liver microsome 1 mg/ml, test compound 2 μM, NADPH 1 mM, 37° C.; for microsomal CLint at 1 h, 2 µM: read-out: Rat Liver Microsome CLint (μL/min/mg protein); for half-life at 1 h, 2 µM: read-out: Rat Liver Microsome T½
[3] = target: T1, COMT enzyme (Homo sapiens, UniProt P21964); experiment: COMT inhibition assay (reaction kinetic model, esculetin fluorescence); assay type: biochemical; details: for inhibition at 0.05 µM: read-out: COMT inhibition at 50 nM; for inhibition at 0.2 µM: read-out: COMT inhibition at 200 nM
T1 construct: COMT (μM); other: at 200 nM; other: at 50 nM; The reaction system contains 1U COMT enzyme, test article, 4 μM Esculetin, 0.6 mM AdoMet, 50 mM K3PO4, and 10 mM MgCl2
T1 sequence (P21964 1-271): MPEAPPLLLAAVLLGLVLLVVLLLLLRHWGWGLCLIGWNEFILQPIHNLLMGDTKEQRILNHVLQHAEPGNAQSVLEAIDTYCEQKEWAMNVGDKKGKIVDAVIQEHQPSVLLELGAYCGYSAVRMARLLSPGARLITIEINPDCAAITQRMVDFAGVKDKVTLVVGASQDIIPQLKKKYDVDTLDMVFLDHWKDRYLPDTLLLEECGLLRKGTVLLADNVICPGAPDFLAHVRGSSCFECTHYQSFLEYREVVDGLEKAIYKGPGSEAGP

[4] = exemplary IC50 data of representative compounds, read-out: Enzymatic inhibition (IC50)
[5] = selectivity table, read-out: FTO

Chain of FTO (Q9C0B1 whole entry): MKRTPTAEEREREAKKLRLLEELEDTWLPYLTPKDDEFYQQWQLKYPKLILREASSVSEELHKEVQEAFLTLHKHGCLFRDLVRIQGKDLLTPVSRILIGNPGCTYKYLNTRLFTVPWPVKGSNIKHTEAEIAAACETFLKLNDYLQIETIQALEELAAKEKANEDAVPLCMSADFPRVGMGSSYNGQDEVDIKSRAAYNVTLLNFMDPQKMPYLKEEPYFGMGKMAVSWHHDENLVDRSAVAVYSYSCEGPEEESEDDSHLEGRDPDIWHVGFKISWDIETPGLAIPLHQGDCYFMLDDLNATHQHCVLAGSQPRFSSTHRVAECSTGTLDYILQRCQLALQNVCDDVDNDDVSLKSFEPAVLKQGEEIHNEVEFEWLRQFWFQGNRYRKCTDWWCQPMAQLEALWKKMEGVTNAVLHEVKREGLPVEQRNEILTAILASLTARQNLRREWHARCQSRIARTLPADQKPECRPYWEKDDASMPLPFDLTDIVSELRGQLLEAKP

SMILES | IC50 [1, 4] | also measured
N#CC(=Cc1cc(O)c(O)c([N+](=O)[O-])c1)c1cccnn1 (stereo in doubt) [Compound 505, (E)-3-(3,4-dihydroxy-5-nitrophenyl)-2-(pyridazin-3-yl)acrylonitrile] | < 1000 nM | –
N#C/C(C(=O)c1cscn1)=C(/O)c1cc(O)c(O)c([N+](=O)[O-])c1 [Compound 711, (Z)-3-(3,4-dihydroxy-5-nitrophenyl)-3-hydroxy-2-(thiazole-4-carbonyl)acrylonitrile] | ~1000 nM | –
CC(NC(=O)/C(C#N)=C/c1cc(O)c(O)c([N+](=O)[O-])c1)C(=O)O (centres unmarked) [Compound 712] | ~1000 nM | –
CCN(CC)C(=O)/C(C#N)=C/c1cc(O)c(O)c([N+](=O)[O-])c1 [Entacapone, entacapone, reference compound] | – | microsomal CLint at 1 h, 2 µM [2]: 17.7 µL/min/mg; half-life at 1 h, 2 µM [2]: 39.2 min
COc1cc(/C(O)=C(\C#N)c2cnccn2)cc([N+](=O)[O-])c1O [Compound 524] | ~1000 nM | –
N#C/C(=C\c1cc(O)c(O)c([N+](=O)[O-])c1)c1ccncc1 [Compound 389] | ~1000 nM | –
N#C/C(=C(/O)c1cc(O)c(O)c([N+](=O)[O-])c1)c1nc2ccccc2s1 [Compound 359] | > 1000 nM | –
CCNC(=O)/C(C#N)=C(\O)c1cc(O)c(O)c([N+](=O)[O-])c1 [Compound 691, (Z)-2-cyano-3-(3,4-dihydroxy-5-nitrophenyl)-N-ethyl-3-hydroxyacrylamide] | < 1000 nM | –
N#C/C(C(=O)N1CCCOC1)=C(/O)c1cc(O)c(O)c([N+](=O)[O-])c1 [Compound 715] | < 1000 nM | –
N#C/C(=C\c1cc(O)c(O)c([N+](=O)[O-])c1)C(=O)NCC(=O)O [Compound 709, (E)-2-(2-cyano-3-(3,4-dihydroxy-5-nitrophenyl)acrylamido)acetic Acid] | < 1000 nM | –
N#C/C(=C\c1cc(O)c(O)c([N+](=O)[O-])c1)C(=O)NO [Compound 664] | ~1000 nM | –
N#C/C(=C\c1cc(O)c(O)c([N+](=O)[O-])c1)C(=O)N1CCCC1 [Compound 317] | > 1000 nM | –
CCN(CC)C(=O)/C(C#N)=C(\O)c1cc(O)c(O)c([N+](=O)[O-])c1 [Compound 347, 2-cyano-3-(3,4-dihydroxy-5-nitrophenyl)-N,N-diethyl-3-oxopropanamide] | – | IC50 [3]: 551 nM; microsomal CLint at 1 h, 2 µM [2]: 0.1 µL/min/mg; half-life at 1 h, 2 µM [2]: 6930 min
N#C/C(=C\c1cc(O)c(O)c([N+](=O)[O-])c1)c1c[n+]([O-])ccn1 [Compound 520] | < 1000 nM | –
N#C/C(C(=O)N1CCC1)=C(/N)c1cc(O)c(O)c([N+](=O)[O-])c1 [Compound 701N, (Z)-3-amino-2-(azetidine-1-carbonyl)-3-(3,4-dihydroxy-5-nitrophenyl)acrylonitrile] | > 1000 nM | –
N#C/C(=C(/O)c1cc(O)c(O)c([N+](=O)[O-])c1)c1ccccn1 [Compound 351, 3-(3,4-dihydroxy-5-nitrophenyl)-3-oxo-2-(pyridin-2-yl)propanenitrile] | < 1000 nM | inhibition at 0.05 µM [3]: 33%; inhibition at 0.2 µM [3]: 80%; microsomal CLint at 1 h, 2 µM [2]: 9 µL/min/mg; half-life at 1 h, 2 µM [2]: 77 min; IC50 [1, 5]: 750 nM
CCNC(=O)/C(C#N)=C/c1cc(O)c(O)c([N+](=O)[O-])c1 [Compound 684] | > 1000 nM | –
N#C/C(=C\c1cc(O)c(O)c([N+](=O)[O-])c1)C(=O)N1CCCCC1 [Compound 371, (E)-3-(3,4-dihydroxy-5-nitrophenyl)-2-(piperidine-1-carbonyl)acrylonitrile] | – | inhibition at 0.05 µM [3]: 33%; inhibition at 0.2 µM [3]: 71%; microsomal CLint at 1 h, 2 µM [2]: 43 µL/min/mg; half-life at 1 h, 2 µM [2]: 16.1 min
N#C/C(=C\c1cc(O)c(O)c([N+](=O)[O-])c1)C(=O)c1nc2ccccc2[nH]1 [Compound 394, 2-(1H-benzo[d]imidazole-2-carbonyl)-3-(3,4-dihydroxy-5-nitrophenyl)acrylo-nitrile] | > 1000 nM | –
N#C/C(=C\c1cc(O)c(O)c([N+](=O)[O-])c1)c1ncns1 [Compound 656, (E)-3-(3,4-dihydroxy-5-nitrophenyl)-2-(1,2,4-thiadiazol-5-yl)acrylonitrile] | < 1000 nM | –
N#C/C(=C\c1cc(O)c(O)c([N+](=O)[O-])c1)C(=O)N[C@@H](CO)C(=O)O [Compound 693, (S,E)-2-(2-cyano-3-(3,4-dihydroxy-5-nitrophenyl)acrylamido)-3-hydroxypropanoic Acid] | ~1000 nM | –
COc1cc(/C(O)=C(\C#N)C(=O)NCc2ccncn2)cc([N+](=O)[O-])c1O [Compound 674] | > 1000 nM | –
N#C/C(=C\c1cc(O)c(O)c([N+](=O)[O-])c1)C(=O)Nc1ccccc1 [Compound 318] | ~1000 nM | –

More lines, main results first:

IC50 [1, 4] | SMILES | also measured
< 1000 nM | N#C/C(=C(/N)c1cc(O)c(O)c([N+](=O)[O-])c1)c1cnc(C(=O)O)cn1 [Compound 697N] | –
> 1000 nM | N#C/C(C(=O)NC1CC1)=C(/N)c1cc(O)c(O)c([N+](=O)[O-])c1 [Compound 692N, (Z)-3-amino-2-cyano-N-cyclopropyl-3-(3,4-dihydroxy-5-nitrophenyl)acrylamide] | –
< 1000 nM | N#C/C(=C\c1cc(O)c(O)c([N+](=O)[O-])c1)c1cccnc1 [Compound 319] | –
~1000 nM | N#C/C(=C\c1cc(O)c(O)c([N+](=O)[O-])c1)C(=O)N1CCC[C@H]1C(=O)O [Compound 702, (S,E)-1-(2-cyano-3-(3,4-dihydroxy-5-nitrophenyl)acryloyl)pyrrolidine-2-carboxylic Acid] | –
> 1000 nM | N#C/C(=C\c1cc(O)c(O)c([N+](=O)[O-])c1)C(=O)Nc1nc2ccccc2s1 [Compound 333] | –
< 1000 nM | N#C/C(C(=O)NC1CC1)=C(/O)c1cc(O)c(O)c([N+](=O)[O-])c1 [Compound 692, (Z)-2-cyano-N-cyclopropyl-3-(3,4-dihydroxy-5-nitrophenyl)-3-hydroxyacrylamide] | –
~1000 nM | N#C/C(=C\c1cc(O)c(O)c([N+](=O)[O-])c1)c1cncnc1 [Compound 522] | –
< 1000 nM | N#C/C(C(=O)Nc1ncns1)=C(/O)c1cc(O)c(O)c([N+](=O)[O-])c1 [Compound 668, 2-cyano-3-(3,4-dihydroxy-5-nitrophenyl)-3-hydroxy-N-(1,2,4-thiadiazol-5-yl)acrylamide] | –
~1000 nM | N#C/C(=C\c1cc(O)c(O)c([N+](=O)[O-])c1)C(=O)Nc1cccc(Cl)c1 [Compound 365] | –
> 1000 nM | N#CC(=Cc1cc(O)c(O)c([N+](=O)[O-])c1)c1ccc[n+]([O-])c1 (stereo in doubt) [Compound 518, (E)-3-(1-cyano-2-(3,4-dihydroxy-5-nitrophenyl)vinyl)pyridine 1-oxide] | –
< 1000 nM | N#C/C(=C\c1cc(O)c(O)c([N+](=O)[O-])c1)c1ccncn1 [Compound 395, 3-(3,4-dihydroxy-5-nitrophenyl)-2-(pyrimidin-4-yl)acrylonitrile] | inhibition at 0.05 µM [3]: 36%; inhibition at 0.2 µM [3]: 74%; microsomal CLint at 1 h, 2 µM [2]: 12.6 µL/min/mg; half-life at 1 h, 2 µM [2]: 55 min; IC50 [1, 5]: 500 nM
< 1000 nM | N#C/C(=C\c1cc(O)c(O)c([N+](=O)[O-])c1)c1nc(C(=O)O)cs1 [Compound 666, (E)-2-(1-cyano-2-(3,4-dihydroxy-5-nitrophenyl)vinyl)thiazole-4-carboxylic Acid] | –
> 1000 nM | N#C/C(=C\c1cc(O)c(O)c([N+](=O)[O-])c1)C(=O)c1cc(O)no1 [Compound 675, (E)-3-(3,4-dihydroxy-5-nitrophenyl)-2-(3-hydroxyisoxazole-5-carbonyl)acrylonitrile] | –
> 1000 nM | N#C/C(=C\c1cc(O)c(O)c([N+](=O)[O-])c1)C(=O)N1CCOCC1 [Compound 382] | –
> 1000 nM | N#C/C(=C\c1cc(O)c(O)c([N+](=O)[O-])c1)C(=O)c1cscn1 [Compound 698] | –
< 1000 nM | N#C/C(C(=O)Nc1cnccn1)=C(/O)c1cc(O)c(O)c([N+](=O)[O-])c1 [Compound 722] | –
> 1000 nM | N#C/C(C(=O)c1cscn1)=C(/N)c1cc(O)c(O)c([N+](=O)[O-])c1 [Compound 711N, ammonium (Z)-5-(1-amino-2-cyano-3-oxo-3-(thiazol-4-yl)prop-1-enyl)-2-hydroxy-3-nitrophenolate] | –
> 1000 nM | N#C/C(=C\c1cc(O)c(O)c([N+](=O)[O-])c1)C(=O)NCc1ccccc1 [Compound 366] | –
< 1000 nM | N#C/C(=C\c1cc(O)c(O)c([N+](=O)[O-])c1)C(=O)NC1COC1 [Compound 713] | –
< 1000 nM | N#C/C(C(=O)NCc1ccncn1)=C(/O)c1cc(O)c(O)c([N+](=O)[O-])c1 [Compound 673, (Z)-2-cyano-3-(3,4-dihydroxy-5-nitrophenyl)-3-hydroxy-N-(pyrimidin-4-ylmethyl)acrylamide] | –
< 1000 nM | Cc1ccc(/C(C#N)=C/c2cc(O)c(O)c([N+](=O)[O-])c2)nc1 [Compound 502] | –
~1000 nM | CCNC(=O)/C(C#N)=C(\N)c1cc(O)c(O)c([N+](=O)[O-])c1 [Compound 691N, (Z)-3-amino-2-cyano-3-(3,4-dihydroxy-5-nitrophenyl)-N-ethylacrylamide] | –
> 1000 nM | N#C/C(=C\c1cc(O)c(O)c([N+](=O)[O-])c1)C(=O)NCCO [Compound 688, (E)-2-cyano-3-(3,4-dihydroxy-5-nitrophenyl)-N-(2-hydroxyethyl)acrylamide] | –
